Experimental data taken from patent publication US10513495B2, “Polymorph of pimavanserin tartrate and preparation method thereof and use of same” (SHANGHAI BEGREAT PHARMATECH, priority 2016, dated 2019).
Counter-ions that a name gives are not always drawn.

Experiment: Powder fluidity test (angle of repose)
Assay type: physicochemical
Conditions: for powder flowability (in words): Form III compared to existing Pimavanserin tartrate Form A, B and C; for angle of repose: powder through two funnels onto 7 cm diameter petri dish, α=arc tg(H/R), average of three measurements, ≤30 degrees good, >40 degrees very poor flowability, tartrate
Experimental: Powder fluidity test: the tray is a 7 cm diameter petri dish. The two glass funnels are overlapped on the iron frame. The distance between the lower funnel outlet and the Petri dish is 3.5-6.0 cm. Pimavanserin tartrate salt was added slowly from the upper funnel, and the sample was gradually accumulated on the petri dish through the buffer of the two funnels to form a cone until the highest cone was obtained. Determine the height H of the cone, measure each sample three times, take the average value, and calculate the angle of repose according to the following formula: α=arc tg(H/R) where α is the angle of repose and R is the radius of the dish
When the angle of repose of the powder is less than or equal to 30 degrees, it means the flowability of this powder is good. While in case, 40 degrees or less of the powder angle of repose, this powder can satisfy the demand for fluidity in the production process. When the angle of repose of the powder is more than 40 degrees, it means the very poor flowability of the drug powder which may cause the troubles above mentioned during the drug manufacturing process.

powder flowability (in words) | angle of repose [°] | Compound
poor | 43 | CC(C)COc1ccc(CNC(=O)N(Cc2ccc(F)cc2)C2CCN(C)CC2)cc1 [Form B, N-(4-fluorobenzyl)-N-(1-methylpiperidin-4-yl)-N′-[4-(2-methylpropoxy)phenylmethyl]urea tartrate]
poor | 41 | CC(C)COc1ccc(CNC(=O)N(Cc2ccc(F)cc2)C2CCN(C)CC2)cc1 [Form C, N-(4-fluorobenzyl)-N-(1-methylpiperidin-4-yl)-N′-[4-(2-methylpropoxy)phenylmethyl]urea tartrate]
poor | 45 | CC(C)COc1ccc(CNC(=O)N(Cc2ccc(F)cc2)C2CCN(C)CC2)cc1 [Form A, N-(4-fluorobenzyl)-N-(1-methylpiperidin-4-yl)-N′-[4-(2-methylpropoxy)phenylmethyl]urea tartrate]

Compound | powder flowability (in words) | angle of repose [°]
CC(C)COc1ccc(CNC(=O)N(Cc2ccc(F)cc2)C2CCN(C)CC2)cc1 [Form III, N-(4-fluorobenzyl)-N-(1-methylpiperidin-4-yl)-N′-[4-(2-methylpropoxy)phenylmethyl]urea tartrate] | significantly improves the powder flowability | 32
